Values belong to the compound of their own block, whether it stands above or below them. Ends that are not written are not given here.
How the values were obtained:
[1] = target: T1, purified PKN from rat testis (Rattus norvegicus, UniProt Q63433); assay: Phosphorylation of native NF by PKN; type: biochemical; settings: 40 μM arachidonic acid
T1 construct: The purified PKN (1 ng) from rat testis cytosol; from tissue; host or cells: rat testis (cytosol / soluble fraction)
Experimental: Native NFs were prepared from bovine spinal cords according to a method described in Hisanaga, S. & Hirokawa, N., J. Mol. Biol. 202, 297-305 (1988). Kinase assay was carried out according to the following method.
Soluble cytosolic extract of spinal cord or purified NF proteins were boiled for 5 min to destroy endogenous protein kinase activity prior to their use as phosphate acceptors. The phosphorylation of NF preparations was carried out at 30° C. in an assay mixture containing 20 mM Tris/HCl at pH 7.5, 8 mM MgCl2, 100 μM ATP, 185 kBq of [γ-^32P]ATP, each subunit of NF, 20 ng/ml of purified PKN from rat testis, and with/without 40 μM arachidonic acid as indicated in each experiment. Reactions were terminated after various times by the addition of an equal volume of Laemli's sample buffer, and separation was performed on 7% SDS-PAGE. The gels were dried under vacuum and exposure to BAS1000 bio-imaging analyzer. Dephosphorylation of NF proteins was conducted with calf intestine alkaline phosphatase according to a method described in Carden, M. J. et al., J. Biol. Chem. 260, 9805-9817 (1985) and terminated after boiling for 5 min.

[2] = target: T2, PKN purified from rat testis (Rattus norvegicus, UniProt Q63433); assay: Phosphorylation of α-actinin and actin-cytoskeletal proteins by PKN; type: biochemical; settings: presence of 40 μM arachidonic acid
T2 construct: The purified PKN (1 ng) from rat testis cytosol; from tissue; host or cells: rat testis (cytosol / soluble fraction)
Experimental: α-Actinin used in the experiment was purified from bovine aorta by the method of Feramisco et al. (Feramisco, J. R. & Burridge, K. J. Biol. Chem, 255, 1194-1199 (1980)). The phosphorylation by PKN was carried out at 30° C. in an assay mixture containing 20 mM Tris/HCl at pH 7.5, 4 mM MgCl2, 100 μM ATP, 185 kBq of [γ-^32p] ATP, substrates for phosphorylation (phosphate acceptors), 20 ng/ml of purified PKN from rat testis (Abe, M., et al., J. Biochem. Tokyo 107, 507-509 (1990)) in the presence or absence of 40 μM arachidonic acid as indicated in each experiment. Partial purified protein was boiled for 3 min to destroy endogenous kinase activity before use as the substrate for phosphorylation. After incubation for 5 min, the reaction was terminated by the addition of an equal volume of Laemmli's sample buffer (Laemmli, U. K. Nature […], 680-685 (1970)), and separated on SDS-PAGE. The gels were dried under vacuum and the phosphorylation was visualized and quantitated by an imaging analyzer (FUJI BAS1000). When the δPKC peptide (Mukai, H., et al. Biochem, Biophys. Res. Commun. 204, 348-356 (1994)) was used as the substrate for phosphorylation, reactions were terminated by spotting a mixture onto a Whatman P81 paper and submerging it in 75 mM phosphate, and followed by three times of 10 min washes. Incorporation of ^32p into the peptide was assessed by scintillation counting. […]

Rat-1 cells = assay: Subcellular distribution of PKN after sodium arsenite (immunofluorescence); type: cell-based; settings: 50 μM, 37° C. for 2 hr
Experimental: (§1) Cells grown on coverslips were washed twice with phosphate-buffered saline (PBS), fixed for 1 hr at 4° C. in 4% paraformaldehyde, rinsed with PBS, and then blocked for 1 hr in PBS-T (PBS containing 0.05% Triton X-100) containing 5% normal goat serum. After washing with PBS, cells were incubated overnight at 4° C. with each antiserum which has been diluted with PBS to an antiserum concentration of about 10 μg/ml. Coverslips were then rinsed with PBS-T, and incubated with fluorescein isothiocyanate isomer I (FITC)-conjugated goat anti-rabbit IgG (Medical and biological laboratories, Co. Ltd.) for 60 min. Coverslips were rinsed with PBS-T followed by PBS, mounted with glycerol containing 0.1% 1, 4-diazabicyclo (2, 2, 2) octane (DABCO), and viewed on a Zeiss laser scanning microscope.
An experiment was made in order to examine whether the subcellular distribution of PKN is influenced also by chemical shock. It is known that toxic compounds and toxic heavy metals also induce heat shock proteins and the stress responses in experimental systems (Maytin, E. V. & Young, D. A., J. Biol. Chem. 258, 12718-12722 (1983)). It is also known that cellular response similar to the stress induced by the heat shock is created also by treatment with sodium arsenite (Welch, W. J. & Suhan, J. P., J. Cell Biol. 103, 2035-2052 (1986)). […]

PKN = target: T3, PKN (Rattus norvegicus, UniProt Q63433); assay: Inhibition of protein kinase activity of PKN with synthetic peptides (δPKC peptide substrate); type: biochemical; settings: δPKC peptide at Km concentration (10 μM)
T3 construct: The purified PKN (1 ng) from rat testis cytosol; from tissue; host or cells: rat testis (cytosol / soluble fraction)
Experimental: Kinase assay was carried out by the following method. The purified PKN (1 ng) from rat testis cytosol (Kitagawa, M. et al., Biochem. J. 310, 657-664. (1995)) was incubated for 5 min at 30° C. in a reaction mixture (final volume 25 μl) containing 50 mM Tris/HCl (pH 7.5), 8 mM Mgcl2, 20 μM ATP, 18.5 kBq of [γ-^32p] ATP, 40 μM arachidonic acid, phosphate acceptors and inhibitors as indicated in each experiment. Reactions were started by the addition of the enzyme source and terminated by spotting them onto Whatman P81 papers immersed in 75 mM phosphate. Incorporation of ^32P into phosphate acceptors was assessed by liquid scintillation counting. The protein kinase assay was carried out in the same manner as in Example 13, except that PKN was measured by using 6PKC peptide as a substrate and PKN (39-53) peptide (FIG. 22; black circle) or PKN (54-73) (FIG. 22: white circle) as an inhibitor. The concentration of δPKC peptide was Km concentration (10 μM). The protein kinase reaction was carried out in the presence of PKN (39-53) peptide or PKN (54-73) peptide with various concentrations.

[3] = target: T4, GST-RhoGAP-stimulated GTPase activity of GST-RhoA (Homo sapiens, UniProt P61586); assay: GAP-stimulated GTPase activity of RhoA; type: biochemical; settings: 50 nM GST-RhoGAP, 2 min 25° C., concentration-dependent
T4 construct: made in house
Experimental: The GAP-stimulated GTPase activity of RhoA was assayed by measuring the decreased radioactivity of [γ-^32p] GTP.GST-RhoA for 2 min at 25° C. in the presence of 50 nM of p122 Rho GAP fused to GST (GST-RhoGAP) and MBP-PKN with various concentrations in 100 μl of reaction mixture (20 mM Tris/HCl at pH 7.5, 10 mM EDTA, 1 mM DTT, 10 mM MgCl2, 1 mM GTP, 0.075% CHAPS, 0.25 mM L-α-dimyristoylphosphatidylcholine, 100 nM [γ-^32p] GTP bound form of GST-RhoA) (Homma, Y. & Emori, Y., EMBO J. 14, 286-291 (1995).

[4] = system: PK^−/neo#5 cells (NIH 3T3); assay: Heat shock induced nuclear translocation of PKN in PK^−/neo#5 cells; type: cell-based
Experimental: as §1
At the outset, NIH 3T3 cells which stably overexpresses PKN-PK^− were constructed by the following procedure. A vector phPKNH4-PK^− was constructed by conversion of the lysine at the potential ATP-binding site to an arginine by in vitro site-directed mutagenesis (Mukai, H. & Ono, Y., Biochem. Biophys. Res. Commun. 199, 897-904 (1994)). […]

PKN autophosphorylation = assay: Kinase activity (autophosphorylation) of immunoprecipitated PKN-PK^−; type: biochemical, human; settings: immunoprecipitate from PK^−/neo#5 cells
Experimental: To examine whether PKN-PK^− has kinase activity, the kinase activity of PKN-PK^−, which has been immunoprecipitated by cells, was assayed. Specifically, the assay was carried out according to the following procedure.
The experiment on immunoprecipitation was carried out at 0 to 4° C. The wild type NIH 3T3 cells and PK^−/neo#5 cells were lysed in 0.5 ml of buffer B (20 mM Tris/HCl at pH 7.5, 1% Nonidet P-40, 137 mM NaCl, 10% glycerol, 1 mM PMSF, 20 μg/ml aprotinin, 10 μg/ml leupeptin, 2.5 mM sodium fluoride, 0.25 mM sodium vanadate) for 1 hr. Insoluble materials were removed by centrifugation at 15,000×g for 10 min, and the supernatants were incubated with 1 μl of 10-fold diluted antiserum αN2 (Example 19) for 2 hr. After addition of 40 μl of 50% protein A Sepharose, the mixtures were further incubated for 1 hr. […] Each immunoprecipitate was incubated for 5 min at 30° C. with a 25-μl mixture (20 mM Tris/HCl at pH 7.5, 4 mM MgCl2, 40 μM ATP, 185 kBq of [γ-^32P] ATP without exogenous substrate. After addition of 5 μl of 6×Laemmli sample buffer (Laemmli, U. K. Nature 227, 680-685 (1970)) and boiling, a 20-μl aliquot of the mixture was subjected to 7% SDS-PAGE. The phosphorylation was visualized and quantitated by an imaging analyzer (Fuji BAS1000).

[5] = target: T5, catalytic subunit of bovine heart PKA (Bos taurus, UniProt P00517); assay: Protein kinase assay with PKA (Kemptide substrate), specificity of inhibitor peptide; type: biochemical; settings: Kemptide at Km concentration (16 μM), no arachidonic acid; read-out: IC50 against PKA
T5 construct: The catalytic subunit of bovine heart PKA used in the experiment was purified; from tissue; host or cells: bovine heart
Experimental: In order to judge the specificity of the activity of the inhibitor peptide, a protein kinase assay was carried out using PKA as an enzyme specimen. The catalytic subunit of bovine heart PKA used in the experiment was purified according to a method described in Bechtel, P. J. et al., J. Biol. Chem. 252, 2691-2697 (1977). The protein kinase activity of PKA was measured by using Kemptide (Kemp, B. E. et al., J. Biol. Chem. 252, 4888-4894 (1977) as a substrate under the same conditions as those used in Example 13, except that arachidonic acid was not used. The concentration of Kemptide was the Km concentration (16 μM), and measurement was made using PKN (39-53) peptide as an inhibitor (FIG. 22; white square). The kinase activity was determined in the same manner as in Example 13.

purified PKN = target: T6, purified PKN (Rattus norvegicus, UniProt Q63433); assay: Kinetic assays of PKN inhibition by PKN (39-53) peptide; type: biochemical
T6 construct: The purified PKN (1 ng) from rat testis cytosol; from tissue; host or cells: rat testis (cytosol / soluble fraction)
Experimental: In order to confirm the function of PKN (39-53) as a pseudosubstrate for PKN, kinetic assays were performed with purified PKN, a fixed ATP concentration of 100 μM, and various concentrations of δPKC peptide (10-80 μM). The protein kinase reaction of PKN was performed in the same manner as in Examples 13 and 14. The results, performed in the presence of 40-80 μM PKN (39-53) peptide, are shown in double-reciprocal plots (FIG. 23 (A)). The inhibition was competitive-noncompetitive and gave a linear secondary plot of Km/Vmax (a concentration required to give a half-maximal velocity/maximal velocity) versus inhibitor peptide concentrations (FIG. 23 (B)).

T2 sequence (Q63433 whole entry): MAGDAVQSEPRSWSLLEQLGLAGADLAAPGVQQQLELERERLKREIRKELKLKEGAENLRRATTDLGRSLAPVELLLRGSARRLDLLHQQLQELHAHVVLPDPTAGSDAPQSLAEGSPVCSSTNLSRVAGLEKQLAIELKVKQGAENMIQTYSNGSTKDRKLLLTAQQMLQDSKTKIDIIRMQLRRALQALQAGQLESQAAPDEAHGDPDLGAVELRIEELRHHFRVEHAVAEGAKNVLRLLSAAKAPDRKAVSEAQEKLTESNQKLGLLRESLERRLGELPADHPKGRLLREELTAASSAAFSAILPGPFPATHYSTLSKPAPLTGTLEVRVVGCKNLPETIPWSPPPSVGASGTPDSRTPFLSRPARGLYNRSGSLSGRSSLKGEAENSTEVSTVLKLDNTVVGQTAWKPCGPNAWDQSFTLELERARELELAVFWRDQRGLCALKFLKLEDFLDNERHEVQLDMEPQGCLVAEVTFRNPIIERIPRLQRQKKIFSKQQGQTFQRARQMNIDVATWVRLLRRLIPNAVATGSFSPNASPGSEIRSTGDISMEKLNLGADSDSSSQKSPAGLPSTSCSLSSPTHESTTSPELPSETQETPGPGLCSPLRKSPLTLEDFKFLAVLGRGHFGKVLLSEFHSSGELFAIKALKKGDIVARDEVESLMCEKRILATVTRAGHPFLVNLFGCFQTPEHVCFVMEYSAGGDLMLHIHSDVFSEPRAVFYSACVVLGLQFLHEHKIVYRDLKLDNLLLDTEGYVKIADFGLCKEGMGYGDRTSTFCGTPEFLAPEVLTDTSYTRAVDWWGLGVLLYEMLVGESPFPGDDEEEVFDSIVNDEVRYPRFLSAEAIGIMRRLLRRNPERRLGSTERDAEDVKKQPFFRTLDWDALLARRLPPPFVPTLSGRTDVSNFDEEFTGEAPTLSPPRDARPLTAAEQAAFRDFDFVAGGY
T6 sequence (Q63433 whole entry): as above
T4 sequence (P61586 whole entry): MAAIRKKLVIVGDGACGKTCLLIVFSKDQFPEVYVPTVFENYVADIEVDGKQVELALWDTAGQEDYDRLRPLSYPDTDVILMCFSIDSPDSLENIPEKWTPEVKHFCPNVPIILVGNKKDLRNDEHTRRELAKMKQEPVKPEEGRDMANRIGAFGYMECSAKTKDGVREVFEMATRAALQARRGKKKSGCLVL
T3 sequence (Q63433 whole entry): as the sequence (Q63433 whole entry) above
T1 sequence (Q63433 whole entry): as above

initial velocity of phosphorylation of each NF subunit by PKN, presence versus absence [1]: 5-10 times
stimulation of phosphorylation of G-actin by PKN [2]: up to 2 fold
stimulation of phosphorylation of caldesmon by PKN [2]: at least 6 fold
Compound: CCCCC/C=C\C/C=C\C/C=C\C/C=C\CCCC(=O)O [arachidonic acid]

Compound: O=[As]O [sodium arsenite]
effect on subcellular distribution of PKN (Rat-1 cells): translocation of PKN to the nucleus

inhibitory activity against PKN (PKN): little or no inhibitory activity
Compound: EGAENLRRATTDLGRSLGPV [PKN (54-73) peptide]

Compound: MBP-PKN: N-terminal region of PKN (amino acid sequence 7-155 in SEQ ID NO: 1) expressed as MBP fusion protein
effect on GST-RhoGAP-stimulated GTPase activity of GST-RhoA [3]: inhibited

enzyme (kinase) activity of the mutant (PKN autophosphorylation): inactivated
Compound: PKN-PK^−: single point mutation of human PKN in the kinase domain (K644R), protein kinase-negative mutant
nuclear translocation of the mutant protein on heat shock ([4]; 42° C. or 44° C. for 90 min): does not translocate to the nucleus
effect of overexpression on translocation of endogenous PKN from cytoplasm to nucleus ([4]; heat shock): inhibits the translocation

IC50 [5]: ≥ 1000 µM
type of inhibition versus δPKC peptide substrate (purified PKN; 100 μM ATP): competitive-noncompetitive
type of inhibition with varying ATP concentration (purified PKN; data not shown): uncompetitive
Compound: RERLRREIRKELKLK [PKN (39-53) peptide]
